Earlier results, collected in patent US5843995A, “Inhibition of HIV-1 replication using oligocarbamate derivatives” (University of Medicine and Dentistry of New Jersey, priority 1997, dated 1998).

Test system: HIV-1
Conditions: cells pretreated with peptide 24 hours prior to infection

CC(=O)N[C@H](CCCNC(=N)N)C(=O)N[C@H](CCCNC(=N)N)C(=O)N[C@H](CCCNC(=N)N)C(=O)N[C@H](CCCNC(=N)N)C(=O)N[C@H](CCCNC(=N)N)C(=O)N[C@H](CCCNC(=N)N)C(=O)N[C@H](CCCNC(=N)N)C(=O)N[C@H](CCCNC(=N)N)C(=O)N[C@H](CCCNC(=N)N)C(N)=O [N-acetyl-(DArg)9 -NH2]
mechanism of antiviral activity: via inhibition of viral entry
